Literature values as cited in patent US20090004105A1, “Molecular imaging of matrix metalloproteinase expression using labeled chlorotoxin” (priority 2007, published 2009).

Assays:
[1] = tested on: tumors of neuroectodermal origin; details: immunohistochemical studies, Lyons et al. 2002
[2] = biological target: T1, MMP-2 presented on the surface of glioma cells (Homo sapiens, UniProt P08253); details: Deshane et al. 2003
T1 sequence (P08253 110-660): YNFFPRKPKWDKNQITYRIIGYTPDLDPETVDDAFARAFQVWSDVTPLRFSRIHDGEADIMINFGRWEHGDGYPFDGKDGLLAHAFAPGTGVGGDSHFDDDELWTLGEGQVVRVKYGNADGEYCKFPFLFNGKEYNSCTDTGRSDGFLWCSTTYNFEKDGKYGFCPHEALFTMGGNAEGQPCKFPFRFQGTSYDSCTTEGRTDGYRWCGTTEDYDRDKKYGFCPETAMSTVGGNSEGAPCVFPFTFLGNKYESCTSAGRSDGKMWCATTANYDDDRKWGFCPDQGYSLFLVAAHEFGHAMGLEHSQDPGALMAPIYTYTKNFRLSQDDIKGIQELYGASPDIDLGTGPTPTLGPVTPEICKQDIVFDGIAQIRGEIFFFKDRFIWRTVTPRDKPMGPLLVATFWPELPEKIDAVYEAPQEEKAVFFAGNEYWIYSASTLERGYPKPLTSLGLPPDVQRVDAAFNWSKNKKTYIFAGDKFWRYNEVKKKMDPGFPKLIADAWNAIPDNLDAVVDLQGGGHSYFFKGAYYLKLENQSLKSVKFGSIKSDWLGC

Chlorotoxin [Cltx]
binding to tumors of neuroectodermal origin [1]: specifically and selectively binds | MMP-2 inhibition [2]: specific MMP-2 inhibitor | binding affinity to MMP-2 on glioma cell surface [2]: high affinity
